Experimental data: PubChem BioAssay AID1963874 (Molecular Pharmacology Branch, DTP, NCI, 2024)

Test system: 253994-281-T-J1-PDC KRAS-mutant spheroids with HUVEC/MSC, viability
Experiment: Anticancer human tumor 253994-281-T-J1-PDC patient-derived colorectal carcinoma cell line growth inhibition [KRAS2]
Details: for viability, T/C: stronger effect = lower value
Procedure, shortened: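 KRAS-mutant tumor cells were grown as spheroids with HUVEC endothelial cells and human MSCs as stroma. Targeted agents were tested alone and with KRAS pathway inhibitors. Doses started at or near clinical Cmax, or 10 microM, descending half-log.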
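Also: spheroids exposed to agents for seven days before readout.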
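For viability, T/C in this document: percent of DMSO vehicle control viability.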

SMILES: CN(C)C/C=C/C(=O)Nc1cc2c(Nc3ccc(F)c(Cl)c3)ncnc2cc1O[C@H]1CCOC1 + C=CC(=O)N1CCN(c2nc(=O)n(-c3c(C)ccnc3C(C)C)c3nc(-c4c(O)cccc4F)c(F)cc23)C(C)C1
- IC50 (curve of first compound, second compound 0.1 µM): > 100 nM
- IC50 (curve of first compound, second compound 0.316 µM): > 100 nM
- IC50 (curve of first compound, second compound 1 µM): > 100 nM
- IC50 (curve of first compound, second compound 3.16 µM): > 100 nM
- IC50 (curve of first compound, second compound 10 µM): > 100 nM
- viability, T/C (second compound 0.1 µM, first compound 0.000316 µM): 110%
- viability, T/C (second compound 0.1 µM, first compound 0.001 µM): 116%
- viability, T/C (second compound 0.1 µM, first compound 0.00316 µM): 84.9%
- viability, T/C (second compound 0.1 µM, first compound 0.01 µM): 81.3%
- viability, T/C (second compound 0.1 µM, first compound 0.0316 µM): 84.9%
- viability, T/C (second compound 0.1 µM, first compound 0.1 µM): 61.9%
- viability, T/C (second compound 0.316 µM, first compound 0.000316 µM): 105%
- viability, T/C (second compound 0.316 µM, first compound 0.001 µM): 86.5%
- viability, T/C (second compound 0.316 µM, first compound 0.00316 µM): 80.4%
- viability, T/C (second compound 0.316 µM, first compound 0.01 µM): 90.7%
- viability, T/C (second compound 0.316 µM, first compound 0.0316 µM): 68.9%
- viability, T/C (second compound 0.316 µM, first compound 0.1 µM): 63%
- viability, T/C (second compound 1 µM, first compound 0.000316 µM): 87.1%
- viability, T/C (second compound 1 µM, first compound 0.001 µM): 96.1%
- viability, T/C (second compound 1 µM, first compound 0.00316 µM): 79.9%
- viability, T/C (second compound 1 µM, first compound 0.01 µM): 70.8%
- viability, T/C (second compound 1 µM, first compound 0.0316 µM): 64.5%
- viability, T/C (second compound 1 µM, first compound 0.1 µM): 85%
- viability, T/C (second compound 3.16 µM, first compound 0.000316 µM): 102%
- viability, T/C (second compound 3.16 µM, first compound 0.001 µM): 97.8%
- viability, T/C (second compound 3.16 µM, first compound 0.00316 µM): 91.3%
- viability, T/C (second compound 3.16 µM, first compound 0.01 µM): 88.7%
- viability, T/C (second compound 3.16 µM, first compound 0.0316 µM): 78.8%
- viability, T/C (second compound 3.16 µM, first compound 0.1 µM): 69.2%
- viability, T/C (second compound 10 µM, first compound 0.000316 µM): 101%
- viability, T/C (second compound 10 µM, first compound 0.001 µM): 102%
- viability, T/C (second compound 10 µM, first compound 0.00316 µM): 79.7%
- viability, T/C (second compound 10 µM, first compound 0.01 µM): 83.6%
- viability, T/C (second compound 10 µM, first compound 0.0316 µM): 73.5%
- viability, T/C (second compound 10 µM, first compound 0.1 µM): 68.7%

SMILES: C=CC(=O)N1CCN(c2nc(OCC3CCCN3C)nc3c2CCN(c2cccc4cccc(C)c24)C3)CC1CC#N (stereo not drawn)
- viability, T/C (compound 0.0316 µM): 94.7% [middle of 17 runs]
- viability, T/C (compound 0.1 µM): 93.6% [middle of 17 runs]
- IC50 (compound alone, run of 09/02/2021): > 3160 nM
